Source: US7326707B2, “Bicyclic melanocortin-specific compounds” (Palatin Technologies Incorporated, priority 2001, dated 2008)

Tests used:
[1] = target: T1, B-16 mouse melanoma cells (containing MC1-R) (Mus musculus, UniProt Q01727); assay: Competitive inhibition binding assay, 125I-NDP-α-MSH, MC1-R; conditions: for Inhibition at 1 μM MC1-R: 1 μM compound, inhibition of 125I-NDP-α-MSH binding, mean of triplicates, results less than 0% reported as 0%
T1 construct: B-16 mouse melanoma cells (containing MC1-R); endogenous in cells; host or cells: B-16 mouse melanoma cells
T1 sequence (Q01727 whole entry): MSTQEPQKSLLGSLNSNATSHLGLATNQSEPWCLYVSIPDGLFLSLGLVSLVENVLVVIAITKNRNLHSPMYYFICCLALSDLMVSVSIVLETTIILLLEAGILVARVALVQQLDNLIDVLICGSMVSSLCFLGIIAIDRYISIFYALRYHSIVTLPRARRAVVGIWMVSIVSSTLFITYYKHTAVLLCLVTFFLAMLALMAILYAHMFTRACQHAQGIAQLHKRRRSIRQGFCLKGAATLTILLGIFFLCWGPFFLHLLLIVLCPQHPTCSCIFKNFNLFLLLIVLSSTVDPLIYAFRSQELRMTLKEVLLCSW
Procedure: (§1) Incubation was for 90 minutes at room temperature, after which the assay mixture was filtered and the membranes washed three times with ice cold buffer. The filter was dried and counted in a gamma counter for remaining radioactivity bound to the membranes. […] Each assay was conducted in triplicate and the actual mean values are described.

[2] = target: T2, hMC3-R (Homo sapiens, UniProt P41968); assay: Competitive inhibition binding assay, 125I-NDP-α-MSH, MC3-R; conditions: for Inhibition at 1 μM MC3-R: 1 μM compound, inhibition of 125I-NDP-α-MSH binding, mean of triplicates, results less than 0% reported as 0%
T2 construct: expressed in transfected cells
T2 sequence (P41968 whole entry): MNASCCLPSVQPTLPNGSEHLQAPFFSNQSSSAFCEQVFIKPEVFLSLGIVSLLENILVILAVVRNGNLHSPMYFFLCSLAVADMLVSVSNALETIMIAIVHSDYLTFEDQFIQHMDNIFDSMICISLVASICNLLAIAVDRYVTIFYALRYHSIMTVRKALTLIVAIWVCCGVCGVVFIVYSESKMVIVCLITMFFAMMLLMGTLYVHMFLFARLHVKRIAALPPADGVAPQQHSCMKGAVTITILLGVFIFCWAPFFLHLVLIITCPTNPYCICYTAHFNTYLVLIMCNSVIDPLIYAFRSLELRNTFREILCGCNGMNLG
Procedure: as §1

[3] = target: T3, hMC4-R (Homo sapiens, UniProt P32245); assay: Competitive inhibition binding assay, 125I-NDP-α-MSH, MC4-R; conditions: for Inhibition at 1 μM MC4-R: 1 μM compound, inhibition of 125I-NDP-α-MSH binding, mean of triplicates, results less than 0% reported as 0%
T3 construct: expressed in transfected cells
T3 sequence (P32245 whole entry): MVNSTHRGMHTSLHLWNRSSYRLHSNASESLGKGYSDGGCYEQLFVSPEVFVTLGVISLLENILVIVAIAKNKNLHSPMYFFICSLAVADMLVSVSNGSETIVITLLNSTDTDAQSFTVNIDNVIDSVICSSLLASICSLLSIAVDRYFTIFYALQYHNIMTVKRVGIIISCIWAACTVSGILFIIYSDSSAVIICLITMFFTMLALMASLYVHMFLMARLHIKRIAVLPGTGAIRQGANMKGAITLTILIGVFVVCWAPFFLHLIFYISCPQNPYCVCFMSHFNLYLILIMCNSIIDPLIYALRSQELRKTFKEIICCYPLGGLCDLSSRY
Procedure: as §1

[4] = target: T4, hMC5-R (Homo sapiens, UniProt P33032); assay: Competitive inhibition binding assay, 125I-NDP-α-MSH, MC5-R; conditions: for Inhibition at 1 μM MC5-R: 1 μM compound, inhibition of 125I-NDP-α-MSH binding, mean of triplicates, results less than 0% reported as 0%
T4 construct: expressed in transfected cells
T4 sequence (P33032 whole entry): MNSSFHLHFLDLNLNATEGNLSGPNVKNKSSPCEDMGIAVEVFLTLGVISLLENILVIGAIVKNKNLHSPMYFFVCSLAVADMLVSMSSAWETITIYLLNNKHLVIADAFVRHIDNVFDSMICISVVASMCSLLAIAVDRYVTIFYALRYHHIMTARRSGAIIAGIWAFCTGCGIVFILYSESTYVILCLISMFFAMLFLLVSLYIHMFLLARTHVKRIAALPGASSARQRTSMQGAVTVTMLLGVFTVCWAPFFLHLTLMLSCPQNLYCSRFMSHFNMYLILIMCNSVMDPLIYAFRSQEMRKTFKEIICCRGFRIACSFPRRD
Procedure: as §1

[5] = target: T5, MC1-R (B-16 mouse melanoma cells) (Mus musculus, UniProt Q01727); assay: Ki determination by the method of Example 4, MC1-R; assay type: cell-based
T5 construct: B-16 mouse melanoma cells (containing MC1-R); endogenous in cells; host or cells: B-16 mouse melanoma cells
T5 sequence (Q01727 whole entry): as the sequence (Q01727 whole entry) above

[6] = target: T6, MC3-R (HEK-293 cells expressing MC3-R) (Homo sapiens, UniProt P41968); assay: Ki determination by the method of Example 4, MC3-R; assay type: cell-based
T6 construct: expressed in transfected cells; host or cells: HEK-293
T6 sequence (P41968 whole entry): as the sequence (P41968 whole entry) above

[7] = target: T7, MC4-R (HEK-293 cells expressing MC4-R) (Homo sapiens, UniProt P32245); assay: Ki determination by the method of Example 4, MC4-R; assay type: cell-based
T7 construct: expressed in transfected cells; host or cells: HEK-293
T7 sequence (P32245 whole entry): as the sequence (P32245 whole entry) above
Procedure: (§2) The Ki (nM) of certain compounds of the invention were determined. Functional evaluation of compounds at melanocortin receptors was performed by measuring the accumulation of intracellular cAMP in HEK-293 cells expressing MC3-R, MC4-R or MC5-R, and in B-16 mouse melanoma cells (containing MC1-R). Cells, suspended in Earle's Balanced Salt Solution containing 10 mM HEPES, pH 7.5, 5 mM MgCl2, 1 mM glutamine, 0.1% albumin and 0.6 mM 3-isobutyl-1-methyl-xanthine, a phosphodiesterase inhibitor, were plated in 96 well plates at a density of 0.5×10^5 cells per well. Cells were incubated with the test compounds in the presence or absence of α-MSH for 1 hour at 37° C. cAMP levels were measured by EIA (Amersham) in the cell lysates. Data analysis and EC50 values were determined using nonlinear regression analysis with Prism Graph-Pad software.

[8] = target: T8, MC5-R (HEK-293 cells expressing MC5-R) (Homo sapiens, UniProt P33032); assay: Ki determination by the method of Example 4, MC5-R; assay type: cell-based
T8 construct: expressed in transfected cells; host or cells: HEK-293
T8 sequence (P33032 whole entry): as the sequence (P33032 whole entry) above

[9] = target: T5, MC1-R (B-16 mouse melanoma cells); assay: cAMP assay for agonist/antagonist status, MC1-R; assay type: cell-based; conditions: cAMP assay as in Example 5
Procedure: as §2
(§3) The agonist/antagonist status with respect to MC1-R, MC4-R and MC5-R of certain compounds of the invention was determined. Antagonistic activity was determined by measuring the inhibition of α-MSH-induced cAMP levels following exposure to the compounds as in Example 4.

[10] = target: T7, MC4-R (HEK-293 cells expressing MC4-R); assay: cAMP assay for agonist/antagonist status, MC4-R; assay type: cell-based; conditions: cAMP assay as in Example 5
Procedure: as §2, §3

[11] = target: T8, MC5-R (HEK-293 cells expressing MC5-R); assay: cAMP assay for agonist/antagonist status, MC5-R; assay type: cell-based; conditions: cAMP assay as in Example 5
Procedure: as §2, §3

[12] = test system: Male Sprague-Dawley rats; assay: ICV food intake and body weight change; assay type: in vivo, rat; conditions: 1 nmol dose
Procedure: Change in food intake and body weight was evaluated for selected compounds. Male Sprague-Dawley rats weighing ˜300 g at the beginning of the experiment were kept on a 12 hour on/off light cycle. Lights out was adjusted to 12:00 p.m. to allow for dosing just prior to the start of their dark period. Rats (8-12/group) were fed powdered chow and water ad libitum. For 1 week before treatment, 24-hour food intake and body weight change was recorded to assess a baseline for the group during vehicle treatment. The rats were dosed ICV with vehicle or selected compounds (1-3 nmol). The changes in body weight and food intake for the 24 hour period after dosing were determined. The changes in body weight and food intake for the 48 hour period, and in same cases for 72 hours as well, after dosing were also measured to determined reversal of changes in body weight and food intake effect back to baseline.

| Structure (SMILES) | inhibition at 1 µM [1] [%] | inhibition at 1 µM [2] [%] | inhibition at 1 µM [3] [%] | inhibition at 1 µM [4] [%] | Ki [5] [nM] | Ki [6] [nM] | Ki [7] [nM] | Ki [8] [nM] | agonist/antagonist status as to MC1-R [9] | agonist/antagonist status as to MC4-R [10] | agonist/antagonist status as to MC5-R [11] | Inhibition at 1 μM MC1-R [1] [%] | Inhibition at 1 μM MC3-R [2] [%] | Inhibition at 1 μM MC4-R [3] [%] | Inhibition at 1 μM MC5-R [4] [%] | 24 hour change in food intake [12] [g] | change in weight ([12]; 24 hour) [g] |
| --- | --- | --- | --- | --- | --- | --- | --- | --- | --- | --- | --- | --- | --- | --- | --- | --- | --- |
| N=C(N)NCCCC1C(=O)N2C(COc3ccc4ccccc4c3)CCC2N1C(=O)C(N)Cc1ccc(Cl)cc1Cl (centres unmarked) [Compound B] | 54 | 75 | 98 | 69 | 144 | 132 | 11 | 499 | agonist | agonist | agonist |  |  |  |  |  |  |
| N=C(N)NCCCC1C(=O)N2C(Cc3ccc4ccccc4c3)CCC2N1C(=O)C(N)Cc1ccc(Cl)cc1Cl (centres unmarked) [Compound G] | 76 | 63 | 93 | 46 | 63 | 121 | 19 | 1050 |  | agonist | agonist |  |  |  |  |  |  |
| N=C(N)NCCCC1C(=O)N2C(COc3ccc4ccccc4c3)CCC2N1CC(N)Cc1ccc(Cl)cc1Cl (centres unmarked) [Compound O] | 2 | 28 | 91 | 49 | 848 | 505 | 29 | 689 |  |  |  |  |  |  |  |  |  |
| NCCCCC1C(=O)N2C(COc3ccc4ccccc4c3)CCC2N1C(=O)C(Cc1ccc(Cl)cc1)NC(=O)C1Cc2ccccc2CN1 (centres unmarked) [Example 11] | 95 | 24 | 94 | 73 | 10 | 787 | 24 | 398 |  |  |  |  |  |  |  |  |  |
| CCCCCCC(=O)NC(COCc1ccccc1)C(=O)NC(Cc1ccc(Cl)cc1)C(=O)N1C(CCCCN)C(=O)N2C(COc3ccc4ccccc4c3)CCC21 (centres unmarked) [Example 12] | 98 | 75 | 98 | 95 | 13 | 181 | 22 | 116 |  |  |  |  |  |  |  |  |  |
| [2H]N[C@@H](Cc1cnc[nH]1)C(=O)N[C@@H](Cc1ccccc1)C(=O)N1C[C@H](OCc2ccccc2)C[C@H]1C(=O)NCCCCCN [Example 26] |  |  |  |  |  |  |  |  |  |  |  | 34 | 0 | 47 | 14 |  |  |
| [2H]N[C@@H](Cc1cnc[nH]1)C(=O)N[C@@H](Cc1ccccc1)C(=O)N1C[C@H](OCc2ccccc2)C[C@H]1C(=O)NCCCCCCN [Example 27] |  |  |  |  |  |  |  |  |  |  |  | 39 | 0 | 12 | 17 |  |  |
| N=C(N)NCCCC1C(=O)N2C(COc3ccc4ccccc4c3)CCC2N1C(=O)C(Cc1ccccc1Cl)NC(=O)C1Cc2ccccc2CN1 (centres unmarked) [Example 29] | 77 | 42 | 98 | 87 | 81 | 756 | 9 | 301 |  |  |  |  |  |  |  |  |  |
| N=C(N)NCCCC1C(=O)N2C(COc3ccc4ccccc4c3)CCC2N1C(=O)C(Cc1ccccc1Cl)NC(=O)C(N)COCc1ccccc1 (centres unmarked) [Example 30] | 57 | 29 | 94 | 94 | 121 | 733 | 41 | 151 |  |  |  |  |  |  |  |  |  |
| N=C(N)NCCCC1C(=O)N2C(COc3ccc4ccccc4c3)CCC2N1C(=O)C(Cc1ccccc1Cl)NC(=O)C1CC(OCc2ccccc2)CN1 (centres unmarked) [Example 31] |  |  |  |  |  |  |  |  | agonist | agonist |  |  |  |  |  |  |  |
| [2H]N[C@@H](Cc1ccccc1)C(=O)N1C2CC[C@H](COc3ccccc3)N2C(=O)[C@@H]1CCCCN (some centres unmarked) [Example 36] | 1 | 4 | 0 | 0 |  |  |  |  |  |  |  |  |  |  |  |  |  |
| [2H]N[C@@H](Cc1ccccc1)C(=O)N1C2CC[C@H](COc3ccc4ccccc4c3)N2C(=O)[C@@H]1CCCCN (some centres unmarked) [Example 38] | 46 | 13 | 0 | 1 |  |  |  |  |  |  |  |  |  |  |  |  |  |
| [2H]N[C@@H](Cc1cnc[nH]1)C(=O)N[C@@H](Cc1ccccc1)C(=O)N1C2CC[C@H](COc3ccc4ccccc4c3)N2C(=O)[C@@H]1CCCCN (some centres unmarked) [Example 42] |  | 0 | 36 | 0 |  |  |  |  |  |  |  |  |  |  |  |  |  |
| N=C(N)NCCCC1C(=O)N2C(COc3ccc4ccccc4c3)CCC2N1C(=O)C(Cc1ccc(Cl)cc1Cl)NC(=O)C1CCC(c2ccccc2)N1 (centres unmarked) [Example 46] |  |  |  |  | 1040 | 312 |  |  |  |  |  |  |  |  |  | -9.52 | -10.64 |
